According to patent US9358250B2, “Methods of using SCD1 antagonists” (Genentech, Inc., priority 2011, dated 2016):

Columns and labels:
Type in all cases: cell-based, human
[1] = test system: phosphorylation of AKT, S6, and MAPK; assay: Western blot, FGF1-stimulated RT112 cells; conditions: rapamycin 50 nM, Ly294002 20 μM, PD325901 100 nM
Protocol: (§1) FIG. 8. FGFR3 signalling promotes the accumulation of matured SREBP1 and lipogenesis via PI3K-mTORC1 pathway. (A) Pharmacological inhibition of FGFR3 signalling. RT112 cells were serum starved for 20 hr, then treated with rapamycin (50 nM), Ly294002 (Ly294, 20 μM) and PD325901(PD901, 100 nM) for 2 hr, followed by stimulation with 30 ng/ml FGF1 plus 10 μg/mL of heparin for 10 min. Cell lysates were subjected to immunoblot analyses with indicated antibodies. Note the increased phosphorylation of MEK upon PD901 treatment, presumably due to a relief of feedback inhibition. (B) PI3K-mTORC1 and MEK inhibitors block FGF1 induction of SREBP1 and SCD1 in RT112 cells. RT112 cells were serum starved for 20 hr, treated with kinase inhibitors for 4 hr, followed by 24 hr incubation in medium supplemented with 30 ng/ml FGF1. Cell lysates were immunoblotted to detect SREBP1 maturation, SCD1 and FASN expression. (C) PI3K-mTORC1 and MEK inhibitors block FGF1-stimulated lipid synthesis. RT112 cells were treated the same as described in (B). [^14C]acetate was added for the final 4 hr incubation. The lipid fraction was extracted and [^14C]acetate incorporated into lipids was measured by scintillation counting. Data were normalized to sample protein content, and presented as mean+/−SD. […]

[2] = test system: SREBP1 maturation, SCD1 and FASN expression; assay: Western blot, FGF1-treated RT112 cells
Protocol: FIG. 8. FGFR3 signalling promotes the accumulation of matured SREBP1 and lipogenesis via PI3K-mTORC1 pathway. (A) Pharmacological inhibition of FGFR3 signalling. RT112 cells were serum starved for 20 hr, then treated with rapamycin (50 nM), Ly294002 (Ly294, 20 μM) and PD325901(PD901, 100 nM) for 2 hr, followed by stimulation with 30 ng/ml FGF1 plus 10 μg/mL of heparin for 10 min. Cell lysates were subjected to immunoblot analyses with indicated antibodies. Note the increased phosphorylation of MEK upon PD901 treatment, presumably due to a relief of feedback inhibition. (B) PI3K-mTORC1 and MEK inhibitors block FGF1 induction of SREBP1 and SCD1 in RT112 cells. RT112 cells were serum starved for 20 hr, treated with kinase inhibitors for 4 hr, followed by 24 hr incubation in medium supplemented with 30 ng/ml FGF1. Cell lysates were immunoblotted to detect SREBP1 maturation, SCD1 and FASN expression. (C) PI3K-mTORC1 and MEK inhibitors block FGF1-stimulated lipid synthesis. RT112 cells were treated the same as described in (B). [^14C]acetate was added for the final 4 hr incubation. The lipid fraction was extracted and [^14C]acetate incorporated into lipids was measured by scintillation counting. Data were normalized to sample protein content, and presented as mean+/−SD.
(§2) It's worth noting that in Ca129 bladder cancer cells, rapamycin and Ly294002 blocked the accumulation of active SREBP1 and the expression of SCD1, consistent with the results observed in RT112 cells (FIG. 9). […] Thus, in bladder cancer cells, FGFR3 mainly signals through PI3K-mTORC1 axis to promote SREBP1 cleavage and activation, resulting in elevated de novo lipogenesis and fatty acid desaturation. The contribution of MEK-MAPK pathway may be cell line- and/or context-dependent.

[3] = test system: total fatty acid synthesis; assay: FGF1-stimulated lipid synthesis, [^14C]acetate, RT112 cells
Protocol: as §1, with “(C) PI3K-mTORC1 and MEK inhibitors block FGF1-stimulated lipid synthesis. RT112 cells were treated the same as described in (B). [^14C]acetate was added for the final 4 hr incubation.” left out, “counting.” for “counting. Data were normalized to sample protein content, and presented as mean+/−SD.”
Lipogenic activity was determined by monitoring the incorporation of [1,2-^14C] acetate (Perkin Elmer, Waltham, Mass.) into fatty acids as reported (39). […] The fatty acids fractions were collected, dried under a steam of nitrogen, and analyzed by scintillation counting. The [^14C] radioactivity was normalized to sample protein content. […]

[4] = test system: matured SREBP1 and SCD1 expression; assay: Western blot, FGF1-treated Ca129 cells
Protocol: FIG. 9. FGFR3 signalling promotes the accumulation of matured SREBP1 and SCD1 expression via PI3K-mTORC1 pathway but not MEK-MAPK pathway in Ca129 cells. Ca129 cells were serum starved for 20 hr, treated for 4 hr with vehicle (DMSO), 50 nM rapamycin (Rapa), Ly294002 (Ly294, 20 μM) and PD325901(PD901, 100 nM). Then cells were cultured in medium supplemented with 30 ng/ml FGF1 for 24 hr. Cell lysates were analyzed by Western blot.
as §2

O=C(NOC[C@H](O)CO)c1ccc(F)c(F)c1Nc1ccc(I)cc1F [PD325901]
FGF1-induced activation of intended target (phosphorylation) [1]: blunted FGF1-induced activation of their intended target
FASN expression [2]: reduced only modestly
SCD1 expression [2]: diminished significantly
basal and FGF1-induced level of the cleaved active SREBP1 [2]: substantially reduced
total fatty acid synthesis stimulated by FGF1 [3]: markedly suppressed
accumulation of active SREBP1 [4]: only partially reduced
expression / induction of SCD1 [4]: did not have much effect
